From patent publication US8716558B2, “Method of altering glycosylation of proteins in response to nojirimycin glucuronide in a plant cell expressing glucuronidase” (Marker Gene Technologies, Inc., priority 1999, dated 2014)

What was measured:
[1] = test system: CRE BAG 2 cells; assay: Selective ablation, ONPG turnover by remaining cells; assay type: cell-based; details: 15 μg/ml, 14 hours, three treatments, ONPG turnover 4 hours
Experimental: (§1) NIH/3T3, CRE BAG 2, or a 50/50 mixture of both cell lines (in co-culture) (Total cell density=6×10^4 cells each) were plated in […]. 12 tissue culture treated glass cover slips were added to each plate, and the cells were allowed to grow in an humidified CO2-incubator (37° C.) for 24 hours. Half the cover slips from each plate were then transferred to separate plates. Cells were treated with 15 μg/ml cycloheximide ? -D-galactopyranoside described in Example 1 (M0147) in media for 14 hours then given fresh media (DME with 10% FCS) for 10 hours. This treatment was repeated twice more, the cover slips were removed from both the M0147 treated and untreated 60 mm plates and placed in 12 well plates. To give an indication of the number of β-galactosidase expressing CREBAG2 cells remaining on the cover slips, the cover slips were incubated with the β-galactosidase substrate ONPG, whose turnover can be measured by the change in absorbance at 420 nm. The cells were rinsed with PBS, then 1 ml of 3.5 mM ONPG in HBSS was added to each well. After 4 hours incubation at 37° C., the solution was removed from each well and the absorbance was measured at 420 nm.

[2] = test system: 50/50 co-culture of NIH/3T3 and CRE BAG 2 cells; assay: as above; assay type: cell-based; details: 15 μg/ml
Experimental: as §1

[3] = test system: NIH/3T3 cells; assay: as above; assay type: cell-based; details: 15 μg/ml, 14 hours, three treatments, ONPG turnover 4 hours
Experimental: as §1

[4] = test system: CRE BAG 2 cells (β-galactosidase expressing); assay: Doubling time in DME:F12 with a defined sugar, MTT assay; assay type: cell-based, Mouse; details: CRE BAG 2, named sugar as only sugar
Experimental: (§2) Mouse fibroblast cell line NIH/3T3 and its β-galactosidase expressing derivative CREBAG 2 available from ATCC, Manassas, Va., were grown in media containing either only glucose or only lactose to show the ability to select for β-galactosidase expressing cells by providing only lactose as a carbon source, which must be cleaved into glucose and galactose by β-galactosidase before it can be utilized by the cell.
(§3) 1:1 Dulbecco's Modified Eagles medium (DME): Ham F12 medium was prepared according to standard formula (Freshney) and with the omission of D-glucose, which was replaced by an equimolar quantity of D-lactose. Cell lines were plated in 2, 12 well plates for each cell type, at a density of 5×10^3 cells per well, in DME containing 10% Calf Serum (CS), and incubated for 4 hours at 37° C. to allow settling and attachment to the plate. Media was then removed and cells were washed once with phosphate buffered saline solution (PBS). […]
(§4) For the MTT assay, cells are incubated with the MTT reagent, which is turned over by live cells to a purple MTT formazan product. […] Absorbence of each sample is measured against a DMSO blank at 570 nm.

[5] = test system: NIH/3T3 cells; assay: as above; assay type: cell-based, Mouse; details: NIH/3T3, named sugar as only sugar
Experimental: as §2, §3, §4

| SMILES | Growth (abs @ 420 nm) [1] | β-galactosidase activity (number of CREBAG2 cells) in co-culture ([2]; to nearly that of NIH/3T3 cells alone) | Growth (abs @ 420 nm) ([2]; Coculture, 14 hours, three treatments, ONPG turnover 4 hours) | Growth (abs @ 420 nm) [3] | Doubling Times (Days) of Cells Grown in DME:F12 with 10% dCS [4] [days] | Doubling Times (Days) of Cells Grown in DME:F12 with 10% dCS [5] [days] |
| --- | --- | --- | --- | --- | --- | --- |
| CC1CC(C)C(=O)[C@H]([C@H](CC2CC(=O)NC(=O)C2)OC2OC(CO)C(O)C(O)C2O)C1 (stereo partly drawn) [Example M0147, 3-[2-(3,5-dimethyl-2-oxocyclohexyl)-2-O-(β-D-galactopyranosyl)ethyl]glutarimide] | .450 | decrease of β-galactosidase activity | .133 | .100 |  |  |
| OC[C@H]1O[C@@H](O[C@H]2[C@H](O)[C@@H](O)C(O)O[C@@H]2CO)[C@H](O)[C@@H](O)[C@H]1O (stereo partly drawn) [lactose, D-lactose] |  |  |  |  | 1.13 | 0.87 |
